Assay results as given in patent publication US20230174538A1, “Tricyclic heterocycles” (Merck Patent GmbH, priority 2020, published 2023).

System: YAP-TEAD interaction
Assay: SK-HEP-1 reporter assay (8xTEAD responsive elements driving NanoLuc luciferase)
Assay type: cell-based
Conditions: Homo sapiens, SK-HEP1, SK-HEP-1 reporter assay
Outline: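 Luminescence after NanoGlo addition gave reporter activity, and IC50 values came from duplicate 10-point curves (top final concentration 30 μM, 0.3% DMSO). The cells were SK-HEP-1 with a stably integrated 8×TEAD-driven NanoLuc gene, exposed to compound for 24 h at 37 °C.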

SMILES	IC50 [nM]
Cn1cc2c3cc(C(=O)NCC4=CCOCC4)ccc3n(-c3ccc(C(F)(F)F)cc3)c2n1 [Example B58, N-[(3,6-dihydro-2H-pyran-4-yl)methyl]-2-methyl-8-[4-(trifluoromethyl)phenyl]-2H,8H-pyrazolo[3,4-b]indole-5-carboxamide]	1 to 10
Cn1cc2c3cc(C(=O)N4CCCC(OCC5CC5)C4)ccc3n(-c3ccc(C(F)(F)F)cc3)c2n1 (stereo not drawn) [Example B62, 3-(cyclopropylmethoxy)-1-{2-methyl-8-[4-(trifluoromethyl)phenyl]-2H,8H-pyrazolo[3,4-b]indole-5-carbonyl}piperidine]	> 10000
Cc1nnc2n1CCCC2NC(=O)c1ccc2c(c1)c1cn(C)nc1n2-c1ccc(C(F)(F)F)cc1 (stereo not drawn) [Example B64, 2-methyl-N-(3-methyl-5H,6H,7H,8H-[1,2,4]triazolo[4,3-a]pyridin-8-yl}-8-[4-(trifluoromethyl)phenyl]-2H,8H-pyrazolo[3,4-b]indole-5-carboxamide]	> 10000
CN1CCN(C(=O)c2ccc3c(c2)c2cn(C)nc2n3-c2ccc(C(F)(F)F)cc2)CC1CO (stereo not drawn) [Example B65, (1-methyl-4-{2-methyl-8-[4-(trifluoromethyl)phenyl]-2H,8H-pyrazolo[3,4-b]indole-5-carbonyl}piperazin-2-yl)methanol]	> 10000
Cc1nccc(C2(NC(=O)c3ccc4c(c3)c3cn(C)nc3n4-c3ccc(C(F)(F)F)cc3)CC2)n1 [Example B69, 2-methyl-N-[1-(2-methylpyrimidin-4-yl)cyclopropyl]-8-[4-(trifluoromethyl)phenyl]-2H,8H-pyrazolo[3,4-b]indole-5-carboxamide]	> 10000
Cn1cc2c3cc(C(=O)NC4(c5cncn5C)CC4)ccc3n(-c3ccc(C(F)(F)F)cc3)c2n1 [Example B70, 2-methyl-N-[1-(1-methyl-1H-imidazol-5-yl)cyclopropyl]-8-[4-(trifluoromethyl)phenyl]-2H,8H-pyrazolo[3,4-b]indole-5-carboxamide]	100 to 10000
Cn1cc2c3cc(C(=O)NC45CC4COC5(C)C)ccc3n(-c3ccc(C(F)(F)F)cc3)c2n1 (stereo not drawn) [Example B73, N-(2,2-dimethyl-3-oxabicyclo[3.1.0]hexan-1-yl}-2-methyl-8-[4-(trifluoromethyl)phenyl]-2H,8H-pyrazolo[3,4-b]indole-5-carboxamide]	100 to 10000
Cn1cc2c3cc(C(=O)N4CCC(O)(c5c[nH]nn5)C4)ccc3n(-c3ccc(C(F)(F)F)cc3)c2n1 (stereo not drawn) [Example B74, 1-(2-methyl-8-[4-(trifluoromethyl)phenyl]-2H,8H-pyrazolo[3,4-b]indole-5-carbonyl}-3-(1H-1,2,3-triazol-4-yl)pyrrolidin-3-ol]	100 to 10000
COc1cc(C(C)NC(=O)c2ccc3c(c2)c2cn(C)nc2n3-c2ccc(C(F)(F)F)cc2)sn1 (stereo not drawn) [Example B83, N-[1-(3-methoxy-1,2-thiazol-5-yl)ethyl]-2-methyl-8-[4-(trifluoromethyl)phenyl]-2H,8H-pyrazolo[3,4-b]indole-5-carboxamide]	100 to 10000
Cn1cc2c3cc(C(=O)NCCc4cccc(F)n4)ccc3n(-c3ccc(C(F)(F)F)cc3)c2n1 [Example B84, N-[2-(6-fluoropyridin-2-yl)ethyl]-2-methyl-8-[4-(trifluoromethyl)phenyl]-2H,8H-pyrazolo[3,4-b]indole-5-carboxamide]	> 10000
COCc1noc(C(C)NC(=O)c2ccc3c(c2)c2cn(C)nc2n3-c2ccc(C(F)(F)F)cc2)n1 (stereo not drawn) [Example B86, N-{1-[3-(methoxymethyl)-1,2,4-oxadiazol-5-yl]ethyl}-2-methyl-8-[4-(trifluoromethyl)phenyl]-2H,8H-pyrazolo[3,4-b]indole-5-carboxamide]	100 to 10000
CN(Cc1conc1C1CC1)C(=O)c1ccc2c(c1)c1cn(C)nc1n2-c1ccc(C(F)(F)F)cc1 [Example B88, N-[(3-cyclopropyl-1,2-oxazol-4-yl)methyl]-N,2-dimethyl-8-[4-(trifluoromethyl)phenyl]-2H,8H-pyrazolo[3,4-b]indole-5-carboxamide]	> 10000

Continued, values first:

IC50 [nM]	SMILES
100 to 10000	Cc1cnc2n1CCC2NC(=O)c1ccc2c(c1)c1cn(C)nc1n2-c1ccc(C(F)(F)F)cc1 (stereo not drawn) [Example B57, 2-methyl-N-(3-methyl-5H,6H,7H-pyrrolo[1,2-a]imidazol-7-yl}-8-[4-(trifluoromethyl)phenyl]-2H,8H-pyrazolo[3,4-b]indole-5-carboxamide]
100 to 10000	Cc1c[nH]c(C2(NC(=O)c3ccc4c(c3)c3cn(C)nc3n4-c3ccc(C(F)(F)F)cc3)CCC2)n1 [Example B60, 2-methyl-N-[1-(4-methyl-1H-imidazol-2-yl)cyclobutyl]-8-[4-(trifluoromethyl)phenyl]-2H,8H-pyrazolo[3,4-b]indole-5-carboxamide]
100 to 10000	CC(NC(=O)c1ccc2c(c1)c1cn(C)nc1n2-c1ccc(C(F)(F)F)cc1)C(C)N1CCOCC1 (stereo not drawn) [Example B61, 2-methyl-N-[3-(morpholin-4-yl)butan-2-yl]-8-[4-(trifluoromethyl)phenyl]-2H,8H-pyrazolo[3,4-b]indole-5-carboxamide]
100 to 10000	Cn1cc2c3cc(C(=O)NCc4conc4C4CCC4)ccc3n(-c3ccc(C(F)(F)F)cc3)c2n1 [Example B63, N-[(3-cyclobutyl-1,2-oxazol-4-yl)methyl]-2-methyl-8-[4-(trifluoromethyl)phenyl]-2H,8H-pyrazolo[3,4-b]indole-5-carboxamide]
100 to 10000	Cc1cnn(CC(C)NC(=O)c2ccc3c(c2)c2cn(C)nc2n3-c2ccc(C(F)(F)F)cc2)c1 (stereo not drawn) [Example B66, 2-methyl-N-[1-(4-methyl-1H-pyrazol-1-yl)propan-2-yl]-8-[4-(trifluoromethyl)phenyl]-2H,8H-pyrazolo[3,4-b]indole-5-carboxamide]
10 to 100	Cn1cc2c3cc(C(=O)NCCc4ocnc4CO)ccc3n(-c3ccc(C(F)(F)F)cc3)c2n1 [Example B67, N-{2-[4-(hydroxymethyl)-1,3-oxazol-5-yl]ethyl}-2-methyl-8-[4-(trifluoromethyl)phenyl]-2H,8H-pyrazolo[3,4-b]indole-5-carboxamide]
10 to 100	CCC(NC(=O)c1ccc2c(c1)c1cn(C)nc1n2-c1ccc(C(F)(F)F)cc1)c1c(C)noc1C (stereo not drawn) [Example B71, N-[1-(3,5-dimethyl-1,2-oxazol-4-yl)propyl]-2-methyl-8-[4-(trifluoromethyl)phenyl]-2H,8H-pyrazolo[3,4-b]indole-5-carboxamide]
100 to 10000	CC1COC(CO)CN1C(=O)c1ccc2c(c1)c1cn(C)nc1n2-c1ccc(C(F)(F)F)cc1 (stereo not drawn) [Example B72, (5-methyl-4-{2-methyl-8-[4-(trifluoromethyl)phenyl]-2H,8H-pyrazolo[3,4-b]indole-5-carbonyl}morpholin-2-yl)methanol]
100 to 10000	Cn1cc2c3cc(C(=O)NCC4CC45CCOC5)ccc3n(-c3ccc(C(F)(F)F)cc3)c2n1 (stereo not drawn) [Example B75, 2-methyl-N-({5-oxaspiro[2.4]heptan-1-yl}methyl)-8-[4-(trifluoromethyl)phenyl]-2H,8H-pyrazolo[3,4-b]indole-5-carboxamide]
10 to 100	Cn1cc2c3cc(C(=O)NC4CCCn5nccc54)ccc3n(-c3ccc(C(F)(F)F)cc3)c2n1 (stereo not drawn) [Example B76, 2-methyl-N-(4H,5H,6H,7H-pyrazolo[1,5-a]pyridin-4-yl}-8-[4-(trifluoromethyl)phenyl]-2H,8H-pyrazolo[3,4-b]indole-5-carboxamide]
> 10000	Cc1noc(CC2(NC(=O)c3ccc4c(c3)c3cn(C)nc3n4-c3ccc(C(F)(F)F)cc3)CC2)n1 [Example B77, 2-methyl-N-{1-[(3-methyl-1,2,4-oxadiazol-5-yl)methyl]cyclopropyl}-8-[4-(trifluoromethyl)phenyl]-2H,8H-pyrazolo[3,4-b]indole-5-carboxamide]
100 to 10000	CC1CN(CCNC(=O)c2ccc3c(c2)c2cn(C)nc2n3-c2ccc(C(F)(F)F)cc2)CCO1 (stereo not drawn) [Example B78, 2-methyl-N-[2-(2-methylmorpholin-4-yl)ethyl]-8-[4-(trifluoromethyl)phenyl]-2H,8H-pyrazolo[3,4-b]indole-5-carboxamide]
100 to 10000	CC(CCc1ccccn1)NC(=O)c1ccc2c(c1)c1cn(C)nc1n2-c1ccc(C(F)(F)F)cc1 (stereo not drawn) [Example B79, 2-methyl-N-[4-(pyridin-2-yl)butan-2-yl]-8-[4-(trifluoromethyl)phenyl]-2H,8H-pyrazolo[3,4-b]indole-5-carboxamide]
10 to 100	Cn1cc2c3cc(C(=O)NC4(Cc5nc[nH]n5)CC4)ccc3n(-c3ccc(C(F)(F)F)cc3)c2n1 [Example B80, 2-methyl-N-{1-[(1H-1,2,4-triazol-3-yl)methyl]cyclopropyl}-8-[4-(trifluoromethyl)phenyl]-2H,8H-pyrazolo[3,4-b]indole-5-carboxamide]
100 to 10000	Cn1cc2c3cc(C(=O)NC4(C5CCCO5)CCC4)ccc3n(-c3ccc(C(F)(F)F)cc3)c2n1 (stereo not drawn) [Example B81, 2-methyl-N-[1-(oxolan-2-yl)cyclobutyl]-8-[4-(trifluoromethyl)phenyl]-2H,8H-pyrazolo[3,4-b]indole-5-carboxamide]
100 to 10000	Cn1cc2c3cc(C(=O)NCc4cncn4CCF)ccc3n(-c3ccc(C(F)(F)F)cc3)c2n1 [Example B82, N-{[1-(2-fluoroethyl)-1H-imidazol-5-yl]methyl}-2-methyl-8-[4-(trifluoromethyl)phenyl]-2H,8H-pyrazolo[3,4-b]indole-5-carboxamide]
1 to 10	Cc1oc(C2CC2)nc1CNC(=O)c1ccc2c(c1)c1cn(C)nc1n2-c1ccc(C(F)(F)F)cc1 [Example B85, N-[(2-cyclopropyl-5-methyl-1,3-oxazol-4-yl)methyl]-2-methyl-8-[4-(trifluoromethyl)phenyl]-2H,8H-pyrazolo[3,4-b]indole-5-carboxamide]
100 to 10000	Cn1cc2c3cc(C(=O)NC4C5CCOC5C4(C)C)ccc3n(-c3ccc(C(F)(F)F)cc3)c2n1 (stereo not drawn) [Example B87, N-(7,7-dimethyl-2-oxabicyclo[3.2.0]heptan-6-yl}-2-methyl-8-[4-(trifluoromethyl)phenyl]-2H,8H-pyrazolo[3,4-b]indole-5-carboxamide]
